Patent US20250283040A1, “Methods to Expand a T Regulatory Cell Master Cell Bank” (The Trustees of the University of Pennsylvania, priority 2010, published 2025)
Values joined by “and” are separate entries in the source; they are usually repeats but may differ in a detail not shown here. Equal values may be shown once.

Key:
Assay type in all cases: cell-based, human
PB nTreg [1] = assay: Ex vivo expansion of PB nTreg cultures (fold expansion); details: sort-purified nTregs, first stimulation with KT64/86 cells; Rapamycin 109 nM
Description: Experiments were designed to expand Tregs isolated from adult peripheral blood. Tregs were isolated by a two step procedure in which CD4 cells were first enriched by depleting CD8, −14, and −19+ cells with GMP-grade mAb coated microbeads, followed by positive selection of CD25++ cells using GMP-grade anti-CD25 microbeads (either 75μl/2×10^8 cells, Miltenyi). Treg were subsequently expanded in vitro by repeated stimulation with CD3/28 beads or KT64/86 loaded with anti-CD3 antibody. In addition, the expansion scheme involved expanding Tregs in the presence of Rapamycin (109 nM) and restimulation based upon cell size.
For all experiments, non-mobilized peripheral blood Leukapheresis products were collected from normal adult volunteers using FDA approved/cleared apheresis instruments. Written informed consent was obtained from all subjects. nTreg were purified using GMP magnetic beads or by sorting. […]
(§1) Where indicated, Rapamycin (Rapammune, Wyeth-Ayerst) at 109 nM was added on day 0 and with subsequent media supplementation. Cell size and viability were determined by ViCell (Beckman Coulter).

PB nTreg [2] = assay: Cell size and viability of nTreg cultures by ViCell; details: sort-purified nTregs stimulated with KT64/86 cells; Rapamycin 109 nM
Description: as §1

nTreg cultures = assay: Intracellular cytokine staining after PMA/Ionomycin
Description: Fresh or frozen nTreg were cultured in supplemented X-Vivo 15 for 4 hours±PMA ([…]) and Ionomycin (1 μg/ml) in the presence of Brefeldin A (100 ng/ml) (all Sigma). Frozen/thawed samples were cultured for 1 hour at 37° C. prior to re-stimulation. Cells were then harvested and stained for CD4, 25, Foxp3 and cytokine (IL-2, IL-4, IL-17, and IFNγ) or Granzyme B using the standard Foxp3 intracellular staining kit.

[3] = sort-purified nTreg re-stimulated with KT64/86

CO[C@H]1C[C@@H]2CC[C@@H](C)[C@@](O)(O2)C(=O)C(=O)N2CCCC[C@H]2C(=O)O[C@H]([C@H](C)C[C@@H]2CC[C@@H](O)[C@H](OC)C2)CC(=O)[C@H](C)/C=C(\C)[C@@H](O)[C@@H](OC)C(=O)[C@H](C)C[C@H](C)/C=C/C=C/C=C/1C [Rapamycin]
Expansion with Rapamycin (PB nTreg [1]): 55 fold | Peak cell size with Rapamycin (PB nTreg [2]): 9.9 µm | % of PMA/ionomycin stimulated cells secreting IL-2, with Rapamycin (nTreg cultures; [3]): ≤ 3% | % of cells secreting IFNγ, with Rapamycin (nTreg cultures; [3]): ≤ 2% | % IL-4+ cells, start of the increase with successive re-stimulations (nTreg cultures; with Rapamycin): 8±2% | % IL-4+ cells after the last (fourth) re-stimulation (nTreg cultures; with Rapamycin, Foxp3+ and −): 58±17% and > 50%
